The values that follow come from US4357325A, “Methods of controlling Pasteurella infections” (Eli Lilly and Company, priority 1981, dated 1982).

Molecules are shown by their SMILES. In brackets after ≈: the same amount, converted by molar mass.

One assay concerns P. haemolytica. Description: MIC by conventional broth-dilution assay against P. haemolytica strains (Table II). The class given is cell-based, P. haemolytica (bovine strains). The note with it: Mannheimia haemolytica. How it is done:
(§1) For example, representative compounds were tested against avian, bovine and porcine Pasteurella species, using the conventional broth-dilution assay. The P. haemolytica strains are bovine strains; the P. multocida strains are avian, bovine and porcine strains.

The test system of assay [1] is Pasteurella multocida. Description: Treatment of Pasteurellosis in chicks (Table III). The class given is in vivo, chicks; avian P. multocida. To be noted: 1 and 4 h post challenge, 5 days observation, ten chicks per group. How it is done: Representative compounds were evaluated in groups of ten one-day-old chicks at the specified dosage of subcutaneous injection given one and four hours post challenge of the chicks with Pasteurella multocida (0.1 ml of a 20-hour tryptose broth culture of an avian P. multocida given subcutaneously). The compounds (as free bases) were administered in an aqueous propylene glycol solution; non-medicated water and feed were provided to the animals ad libitum.

For the next assay, the system named is P. multocida. Briefly: MIC by conventional broth-dilution assay against P. multocida strains (Table II). The class given is cell-based, P. multocida (avian, bovine and porcine strains). The note with it: Pasteurella multocida. On the procedure: as §1
For assay [2], the system named is Pasteurella multocida. Briefly: Treatment of Pasteurellosis in mice (Table IV). The class given is in vivo, mice; bovine isolate of P. multocida. To be noted: 50 mg/kg × 2 s.c., 1 and 4 h post challenge, 7 days. On the procedure:
Cirramycin A1 and rosaramicin were evaluated in mice by subcutaneous injection given one and four hours post challenge of the mice with Pasteurella multocida (0.1 ml of a 10^-5 dilution of a tryptose broth culture of a bovine isolate). Mortality was evaluated for the following seven days.

Setting [3] is: 30 mg/kg × 2 s.c., first (or only) experiment.
Setting [4] is: 30 mg/kg × 2 s.c., second experiment.

The term MIC denotes the lowest concentration found to suppress growth. High values mean a need for much substance, low ones inhibition by little substance. Consider `CCC1OC(=O)CC(O)C(C)C(OC2OC(C)C(O)C(N(C)C)C2O)C(CC=O)CC(C)C(O)C=CC(C)=CC1COC1OC(C)C(O)C(OC)C1OC` (stereo not shown) [9-Dihydrodesmycosin, 9-dihydrodesmycosin], for which the MIC with P. haemolytica (P. haemolytica strain 23A) was found to be 25 µg/mL (≈ 32.3 µM); in the assay on P. haemolytica (P. haemolytica strain 23C), 25 µg/mL (≈ 32.3 µM); in the assay with P. haemolytica (P. haemolytica strain 41D), 25 µg/mL (≈ 32.3 µM); in the assay with P. multocida (P. multocida strain 17E), 12.5 µg/mL (≈ 16.2 µM); in the assay with P. multocida (P. multocida strain 22A), 12.5 µg/mL (≈ 16.2 µM); against P. multocida (P. multocida strain 40G) it was 12.5 µg/mL (≈ 16.2 µM). In addition, the minimal inhibitory concentration (MIC) against P. multocida (P. multocida strain 60A) and in the assay on P. multocida (P. multocida strain 68C) was 12.5 µg/mL (≈ 16.2 µM) throughout. Also, the “Deaths in Treated Chicks/Deaths in Infected Nonmedicated Controls” value (“Deaths in Treated Chicks/Deaths” below) is 3/10 in the assay on Pasteurella multocida [1] (setting [3]) and 0/10 with Pasteurella multocida [1] (setting [4]).

On to `CCC1OC(=O)CC(O)C(C)C(OC2OC(C)C(O)C(N(C)C)C2O)C(CCO)CC(C)C(=O)C=CC(C)=CC1COC1OC(C)C(O)C(OC)C1OC` (stereo not shown) [20-Dihydrodesmycosin, 20-dihydrodesmycosin], for which the minimal inhibitory concentration (MIC) in the assay with P. haemolytica (P. haemolytica strain 23A) is 50 µg/mL (≈ 64.6 µM); with P. haemolytica (P. haemolytica strain 23C) it was 50 µg/mL (≈ 64.6 µM); against P. haemolytica (P. haemolytica strain 41D), 50 µg/mL (≈ 64.6 µM); in the assay with P. multocida (P. multocida strain 17E), 25 µg/mL (≈ 32.3 µM); in the assay with P. multocida (P. multocida strain 22A), 25 µg/mL (≈ 32.3 µM); against P. multocida (P. multocida strain 40G), 50 µg/mL (≈ 64.6 µM). The MIC against P. multocida (P. multocida strain 60A) is 25 µg/mL (≈ 32.3 µM); against P. multocida (P. multocida strain 68C), 6.25 µg/mL (≈ 8.08 µM). Moreover, the “Deaths in Treated Chicks/Deaths” value in the assay on Pasteurella multocida [1] (setting [3]) and in the assay with Pasteurella multocida [1] (setting [4]) was 0/10 throughout.

In the case of `CCC1OC(=O)CC(O)C(C)C(OC2OC(C)C(O)C(N(C)C)C2O)C(CC=O)CC(C)C(=O)C=CC2(C)OC2C1C` (stereo not shown) [Cirramycin A1, cirramycin A1], the MIC in the assay on P. haemolytica (P. haemolytica strain 23A) was found to be 3.12 µg/mL (≈ 5.22 µM); with P. haemolytica (P. haemolytica strain 23C) it was 3.12 µg/mL (≈ 5.22 µM); with P. haemolytica (P. haemolytica strain 41D), 3.12 µg/mL (≈ 5.22 µM); against P. multocida (P. multocida strain 17E) it was 1.56 µg/mL (≈ 2.61 µM); against P. multocida (P. multocida strain 22A) it was 3.12 µg/mL (≈ 5.22 µM); in the assay with P. multocida (P. multocida strain 40G) it was 3.12 µg/mL (≈ 5.22 µM). The minimum inhibitory concentration (MIC) in the assay on P. multocida (P. multocida strain 60A) is not above 0.78 µg/mL; with P. multocida (P. multocida strain 68C), 1.56 µg/mL (≈ 2.61 µM). For the same compound, the “No. Died/No. Treated” value in the assay on Pasteurella multocida [2] (Test A, replicate 1) is reported as 1/5; in the assay on Pasteurella multocida [2] (Test A, replicate 2), 2/5; with Pasteurella multocida [2] (Test B, replicate 1) it was 1/5; with Pasteurella multocida [2] (Test B, replicate 2) it was 0/5.

For the compound `CCC1OC(=O)CC(O)C(C)C(OC2OC(C)C(O)C(N(C)C)C2O)C(CC=O)CC(C)C(=O)C=CC(C)=CC1C` (stereo not shown) [DOMT, 23-deoxy-5-O-mycaminosyltylonolide], the MIC in the assay on P. haemolytica (P. haemolytica strain 23A) was found to be 3.12 µg/mL (≈ 5.36 µM); in the assay on P. haemolytica (P. haemolytica strain 23C), 3.12 µg/mL (≈ 5.36 µM); against P. haemolytica (P. haemolytica strain 41D) it was 6.75 µg/mL (≈ 11.6 µM); against P. multocida (P. multocida strain 17E), 1.56 µg/mL (≈ 2.68 µM); against P. multocida (P. multocida strain 22A), 1.56 µg/mL (≈ 2.68 µM); in the assay on P. multocida (P. multocida strain 40G) it was 3.12 µg/mL (≈ 5.36 µM). The MIC against P. multocida (P. multocida strain 60A) and in the assay on P. multocida (P. multocida strain 68C) was not above 0.78 µg/mL throughout. Besides, the results for the “Deaths in Treated Chicks/Deaths” value with Pasteurella multocida [1] (setting [3]) and in the assay on Pasteurella multocida [1] (setting [4]) were 1/9 and 1/10, respectively.

`CCC1OC(=O)CC(O)C(C)C(OC2OC(C)C(O)C(N(C)C)C2O)C(CC=O)CC(C)C(=O)C=CC(C)=CC1COC1OC(C)C(O)C(OC)C1OC` (stereo not shown) [Desmycosin, desmycosin]: the minimal inhibitory concentration (MIC) came to 25 µg/mL (≈ 32.4 µM) in the assay with P. haemolytica (P. haemolytica strain 23A); 25 µg/mL (≈ 32.4 µM) in the assay with P. haemolytica (P. haemolytica strain 23C); 25 µg/mL (≈ 32.4 µM) against P. haemolytica (P. haemolytica strain 41D); 12.5 µg/mL (≈ 16.2 µM) against P. multocida (P. multocida strain 17E); 12.5 µg/mL (≈ 16.2 µM) against P. multocida (P. multocida strain 22A); 25 µg/mL (≈ 32.4 µM) with P. multocida (P. multocida strain 40G). The MIC against P. multocida (P. multocida strain 60A) was found to be 12.5 µg/mL (≈ 16.2 µM); in the assay with P. multocida (P. multocida strain 68C), 6.25 µg/mL (≈ 8.1 µM). The “Deaths in Treated Chicks/Deaths” value in the assay on Pasteurella multocida [1] (setting [3]) and in the assay with Pasteurella multocida [1] (setting [4]) was 0/10 in each case.

For the compound `CCC1OC(=O)CC(O)C(C)C(OC2OC(C)C(O)C(N(C)C)C2O)C(CC=O)CC(C)C(=O)C=CC(C)=CC1COC1OC(C)C(O)C(O)C1OC` (stereo not shown) [Lactenocin, lactenocin], the MIC stood at 25 µg/mL (≈ 33 µM) against P. haemolytica (P. haemolytica strain 23A); 25 µg/mL (≈ 33 µM) in the assay with P. haemolytica (P. haemolytica strain 23C); 50 µg/mL (≈ 66 µM) against P. haemolytica (P. haemolytica strain 41D); 12.5 µg/mL (≈ 16.5 µM) with P. multocida (P. multocida strain 17E); 12.5 µg/mL (≈ 16.5 µM) in the assay with P. multocida (P. multocida strain 22A); 25 µg/mL (≈ 33 µM) against P. multocida (P. multocida strain 40G). Also, the minimum inhibitory concentration (MIC) with P. multocida (P. multocida strain 60A) and in the assay on P. multocida (P. multocida strain 68C) was 6.25 µg/mL (≈ 8.25 µM) throughout. The “Deaths in Treated Chicks/Deaths” value in the assay on Pasteurella multocida [1] (setting [3]) and with Pasteurella multocida [1] (setting [4]) was 0/10 throughout.

Regarding `CC[C@H]1OC(=O)C[C@@H](O)[C@H](C)[C@@H](O[C@@H]2O[C@H](C)C[C@H](N(C)C)[C@H]2O)[C@@H](CC=O)C[C@@H](C)C(=O)/C=C/[C@]2(C)O[C@H]2[C@@H]1C` [Rosaramicin, rosaramicin], the MIC was 1.56 µg/mL (≈ 2.68 µM) with P. haemolytica (P. haemolytica strain 23A); 12.5 µg/mL (≈ 21.5 µM) with P. haemolytica (P. haemolytica strain 23C); 1.56 µg/mL (≈ 2.68 µM) with P. haemolytica (P. haemolytica strain 41D); not above 0.78 µg/mL in the assay with P. multocida (P. multocida strain 17E); 1.56 µg/mL (≈ 2.68 µM) in the assay with P. multocida (P. multocida strain 22A); 1.56 µg/mL (≈ 2.68 µM) against P. multocida (P. multocida strain 40G). Further, the MIC with P. multocida (P. multocida strain 60A) and in the assay on P. multocida (P. multocida strain 68C) was not above 0.78 µg/mL throughout. In addition, the “Deaths in Treated Chicks/Deaths” value was 5/8 with Pasteurella multocida [1] (setting [3]) and 2/8 with Pasteurella multocida [1] (60 mg/kg × 2 s.c.). Also, the “No. Died/No. Treated” value in the assay on Pasteurella multocida [2] (Test A, replicate 1) was 0/5; with Pasteurella multocida [2] (Test A, replicate 2), 0/5; with Pasteurella multocida [2] (Test B, replicate 1), 0/5; with Pasteurella multocida [2] (Test B, replicate 2), 3/5.
